The text below walks through data of patent US10722520B2, “Heterocyclic compounds and their use in preventing or treating bacterial infections” (MUTABILIS, priority 2016, dated 2020).

Structures can show the parent of a compound that is named as a salt. Where two headings read alike, the source gives them in different places. A value given as a limit tells only on which side of the number the result lay.

Targets include OXA-1 (Escherichia coli, UniProt P13661); OXA-48 (Klebsiella pneumoniae, UniProt Q6XEC0); CTX-M-15 (Escherichia coli, UniProt Q9EXV5); KPC-2 (Klebsiella pneumoniae, UniProt Q9F663); TEM-1 (Escherichia coli, UniProt P62593); SHV-1 (Klebsiella pneumoniae, UniProt P0AD64); OXA-11 (Pseudomonas aeruginosa, UniProt Q06778).
A further test addresses AmpC (P99) (Enterobacter cloacae, UniProt P05364). The test can be described thus: biochemical.
A further test deals with CMY-37 (Citrobacter freundii, UniProt P05193). To be noted: read-out: IC50 β-lactamase CMY-37.
In a further test the target is AmpC (PAE) (Pseudomonas aeruginosa, UniProt P24735). The test is described as follows: biochemical.
The next test has as its system E. coli 190317. The test can be described thus: MIC of compound alone, broth microdilution. It is filed as cell-based. To be noted: Escherichia coli; strain 190317; compound alone; read-out: MIC compounds of the invention alone. As for the experimental part:
(§1) Log phase bacterial suspensions were adjusted to a final density of 5×10^5 cfu/mL in cation-adjusted Mueller-Hinton broth (Becton-Dickinson) and added to each well (98 μL). Microplates were incubated for 16-20 h at 35° C. in ambient air. The MIC of the compounds was defined as the lowest concentration of said compounds that prevented bacterial growth as read by visual inspection.

The next test concerns K. pneumoniae 6299. The test is described as follows: MIC of compound alone, broth microdilution. It is filed as cell-based. The conditions noted are these: Klebsiella pneumoniae; strain 6299; compound alone; read-out: MIC compounds of the invention alone. As for the experimental part:
as §1

A further test relates to P. aeruginosa CIP107051. The test can be described thus: MIC of compound alone, broth microdilution. Format: cell-based. The conditions noted are these: Pseudomonas aeruginosa; strain CIP107051; compound alone; read-out: MIC compounds of the invention alone. As for the experimental part: as §1
Another test deals with E. cloacae P99. The test is described as follows: MIC of compound alone, broth microdilution. It is filed as cell-based. The conditions noted are these: Enterobacter cloacae; strain P99; compound alone; read-out: MIC compounds of the invention alone. As for the experimental part:
as §1

The next test concerns K. pneumoniae BAA-1898. The test can be described thus: MIC of compound alone, broth microdilution. Format: cell-based. The conditions noted are these: Klebsiella pneumoniae, BAA1898; strain BAA-1898; compound alone; read-out: MIC compounds of the invention alone. As for the experimental part:
as §1

The next test deals with OXA-15 (Pseudomonas aeruginosa, UniProt Q51574). The test is described as follows: biochemical.
Setting [1] is: class (C), nitrocefin 200 μM, 30-min pre-incubation, enzyme 0.2 nM.

In the case of `NC(=O)Cc1ccn(C2=CC3CN(C2)C(=O)N3OS(=O)(=O)[O-])n1.[Na+]` (stereo not shown) [Example 45, sodium [3-[3-(2-amino-2-oxo-ethyl)pyrazol-1-yl]-7-oxo-1,6-diazabicyclo[3.2.1]oct-3-en-6-yl]sulfate], the IC50 turned out to be 300 nM at OXA-1; 32 nM against AmpC (P99); 19 nM on CMY-37; 18 nM against OXA-48; 1.3 nM against CTX-M-15; 47 nM at KPC-2. The IC50 turned out to be 1.4 nM against TEM-1; 66 nM at AmpC (PAE); 4.5 nM on SHV-1; 310 nM against OXA-15; 92 nM on OXA-11. Further, the MIC was 4 µg/mL in the test on E. coli 190317; more than 32 µg/mL in the test on K. pneumoniae 6299; more than 32 µg/mL with P. aeruginosa CIP107051; 16 µg/mL with E. cloacae P99; 32 µg/mL with K. pneumoniae BAA-1898.
Regarding `O=C(NOCCO)c1ccn(C2=CC3CN(C2)C(=O)N3OS(=O)(=O)[O-])n1.[Na+]` (stereo not shown) [Example 47, sodium [3-[3-(2-hydroxyethoxycarbamoyl)pyrazol-1-yl]-7-oxo-1,6-diazabicyclo[3.2.1]oct-3-en-6-yl]sulfate], the IC50 at OXA-1 came to 200 nM; at AmpC (P99) it was 32 nM; at CMY-37, 32 nM; at OXA-48, 6.7 nM; against CTX-M-15, 1.1 nM; on KPC-2, 12 nM. The IC50 is 1.5 nM on TEM-1; 480 nM against AmpC (PAE); 9.1 nM at SHV-1; 160 nM at OXA-15; 100 nM against OXA-11. In addition, the minimum inhibitory concentration (MIC) with E. coli 190317 is 8 µg/mL; in the test with K. pneumoniae 6299 it was 32 µg/mL; in the test on P. aeruginosa CIP107051, more than 32 µg/mL; in the test on E. cloacae P99, 32 µg/mL; with K. pneumoniae BAA-1898, 32 µg/mL.
Regarding `O=C(Nc1ncns1)c1ccn(C2=CC3CN(C2)C(=O)N3OS(=O)(=O)O)n1` (stereo not shown) [Example 79, [7-oxo-3-[3-(1,2,4-thiadiazol-5-ylcarbamoyl)pyrazol-1-yl]-1,6-diazabicyclo[3.2.1]oct-3-en-6-yl]hydrogen sulfate], the IC50 against OXA-1 was determined as 65 nM; at AmpC (P99), 14 nM; on CMY-37 (setting [1]), 8.6 nM; against OXA-48, 4.7 nM; against CTX-M-15, 0.46 nM; against KPC-2, 4.4 nM. Further, the IC50 against TEM-1 is 0.36 nM; against AmpC (PAE), 95 nM; against SHV-1, 0.98 nM; against OXA-15, 46 nM; at OXA-11, 19 nM. Moreover, the MIC in the test with E. coli 190317, in the test with K. pneumoniae 6299, in the test with P. aeruginosa CIP107051, in the test with E. cloacae P99 and with K. pneumoniae BAA-1898 was more than 32 µg/mL each time.
As for `NCCc1ccn(C2=CC3CN(C2)C(=O)N3OS(=O)(=O)O)n1` (stereo not shown) [Example 10, [3-[3-(2-aminoethyl)pyrazol-1-yl]-7-oxo-1,6-diazabicyclo[3.2.1]oct-3-en-6-yl]hydrogen sulfate], the IC50 at OXA-1 stood at 270 nM; on AmpC (P99), 22 nM; at CMY-37 (setting [1]) it was 18 nM; on OXA-48 it was 14 nM; against CTX-M-15, 1.1 nM; at KPC-2 it was 50 nM. The IC50 was determined as 0.3 nM against TEM-1; 160 nM on AmpC (PAE); 3.2 nM on SHV-1; 180 nM at OXA-15; 67 nM against OXA-11. Further, the MIC in the test with E. coli 190317 was 1 µg/mL; in the test on K. pneumoniae 6299, more than 32 µg/mL; with P. aeruginosa CIP107051, 32 µg/mL; in the test with E. cloacae P99, 8 µg/mL; in the test on K. pneumoniae BAA-1898, 16 µg/mL.
